# From patent publication US10392391B2 (Vertex Pharmaceuticals Incorporated, priority 2012, dated 2019)
# Biological target: ATR kinase (full-length ATR) (Homo sapiens (Human), UniProt Q13535)
# Test: ATR inhibition assay (radioactive-phosphate incorporation)
# Assay type: biochemical
# Settings: not given
# How it was run: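 Ki(app) was fitted by non-linear regression to background-corrected initial rates. Full-length ATR (5 nM) phosphorylated 800 μM peptide using 10 μM [γ-33P]ATP at 25° C in Tris/HCl pH 7.5 buffer with MgCl2, DTT and 7% DMSO. After 10-minute compound pre-incubation and 24-hour reaction, phosphocellulose filters were scintillation counted.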
# Sequence of ATR kinase (full-length ATR) (Q13535 whole entry): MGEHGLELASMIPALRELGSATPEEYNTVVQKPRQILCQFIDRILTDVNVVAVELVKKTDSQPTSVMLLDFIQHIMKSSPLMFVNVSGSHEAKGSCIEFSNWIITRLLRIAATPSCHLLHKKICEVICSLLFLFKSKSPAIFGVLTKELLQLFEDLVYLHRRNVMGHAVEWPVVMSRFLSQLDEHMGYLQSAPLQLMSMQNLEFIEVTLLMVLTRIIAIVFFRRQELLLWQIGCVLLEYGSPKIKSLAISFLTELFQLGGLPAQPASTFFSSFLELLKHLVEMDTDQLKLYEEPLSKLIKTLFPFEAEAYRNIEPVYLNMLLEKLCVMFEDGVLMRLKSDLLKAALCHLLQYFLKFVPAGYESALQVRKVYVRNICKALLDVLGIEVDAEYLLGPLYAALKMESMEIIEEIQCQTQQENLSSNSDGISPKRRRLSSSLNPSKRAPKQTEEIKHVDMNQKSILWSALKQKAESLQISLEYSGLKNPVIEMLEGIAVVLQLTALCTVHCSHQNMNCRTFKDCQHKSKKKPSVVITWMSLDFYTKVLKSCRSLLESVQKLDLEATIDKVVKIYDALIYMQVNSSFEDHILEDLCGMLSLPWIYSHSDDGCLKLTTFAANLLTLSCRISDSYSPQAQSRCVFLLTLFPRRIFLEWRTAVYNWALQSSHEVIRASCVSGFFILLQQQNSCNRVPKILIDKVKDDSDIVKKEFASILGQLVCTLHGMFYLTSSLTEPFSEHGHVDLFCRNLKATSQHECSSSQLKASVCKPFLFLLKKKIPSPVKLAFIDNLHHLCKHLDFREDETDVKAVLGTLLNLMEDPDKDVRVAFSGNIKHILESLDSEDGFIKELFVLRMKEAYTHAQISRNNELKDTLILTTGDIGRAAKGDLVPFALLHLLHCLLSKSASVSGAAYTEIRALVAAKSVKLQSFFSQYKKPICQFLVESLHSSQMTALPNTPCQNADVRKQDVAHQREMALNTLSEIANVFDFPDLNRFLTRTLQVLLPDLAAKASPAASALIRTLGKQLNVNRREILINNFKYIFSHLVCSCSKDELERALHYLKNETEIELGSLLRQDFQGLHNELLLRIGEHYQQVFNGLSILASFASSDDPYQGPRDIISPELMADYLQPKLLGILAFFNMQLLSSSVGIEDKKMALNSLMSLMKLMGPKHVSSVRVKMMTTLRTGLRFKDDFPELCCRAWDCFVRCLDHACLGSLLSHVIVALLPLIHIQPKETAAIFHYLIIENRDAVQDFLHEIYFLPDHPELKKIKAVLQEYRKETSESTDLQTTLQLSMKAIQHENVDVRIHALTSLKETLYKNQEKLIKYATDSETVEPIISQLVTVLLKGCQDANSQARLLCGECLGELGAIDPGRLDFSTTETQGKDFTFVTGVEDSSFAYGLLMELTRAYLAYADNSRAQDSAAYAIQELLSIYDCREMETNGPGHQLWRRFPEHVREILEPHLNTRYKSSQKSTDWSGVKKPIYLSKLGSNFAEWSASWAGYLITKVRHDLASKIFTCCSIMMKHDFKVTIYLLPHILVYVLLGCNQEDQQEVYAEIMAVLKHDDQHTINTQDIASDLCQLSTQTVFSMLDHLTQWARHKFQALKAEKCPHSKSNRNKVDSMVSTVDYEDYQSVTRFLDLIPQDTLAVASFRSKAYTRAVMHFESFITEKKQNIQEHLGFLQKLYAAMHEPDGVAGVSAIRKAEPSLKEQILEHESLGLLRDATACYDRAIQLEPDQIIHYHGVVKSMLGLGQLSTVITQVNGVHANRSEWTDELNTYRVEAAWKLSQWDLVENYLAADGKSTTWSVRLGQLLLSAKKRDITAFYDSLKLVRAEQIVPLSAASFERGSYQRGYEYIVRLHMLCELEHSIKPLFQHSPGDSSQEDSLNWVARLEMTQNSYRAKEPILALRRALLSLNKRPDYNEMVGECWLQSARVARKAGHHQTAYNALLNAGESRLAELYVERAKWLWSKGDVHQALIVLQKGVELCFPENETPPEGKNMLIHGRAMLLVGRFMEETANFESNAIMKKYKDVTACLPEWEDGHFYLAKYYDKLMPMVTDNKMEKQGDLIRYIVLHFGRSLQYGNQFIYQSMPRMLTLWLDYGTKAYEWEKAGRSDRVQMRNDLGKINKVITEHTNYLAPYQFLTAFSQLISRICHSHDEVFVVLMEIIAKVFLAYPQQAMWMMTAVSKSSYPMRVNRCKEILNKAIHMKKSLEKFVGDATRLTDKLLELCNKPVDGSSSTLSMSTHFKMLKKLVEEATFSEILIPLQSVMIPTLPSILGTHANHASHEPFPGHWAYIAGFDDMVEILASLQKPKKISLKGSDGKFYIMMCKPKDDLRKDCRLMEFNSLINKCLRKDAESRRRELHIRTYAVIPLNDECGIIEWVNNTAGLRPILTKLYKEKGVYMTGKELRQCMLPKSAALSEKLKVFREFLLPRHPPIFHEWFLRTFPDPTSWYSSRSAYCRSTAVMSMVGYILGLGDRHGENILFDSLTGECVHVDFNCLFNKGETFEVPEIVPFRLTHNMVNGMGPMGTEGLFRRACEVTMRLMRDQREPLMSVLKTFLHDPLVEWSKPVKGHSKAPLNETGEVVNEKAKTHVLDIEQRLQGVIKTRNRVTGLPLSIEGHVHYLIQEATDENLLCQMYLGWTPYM
row,Ki [nM],Structure (SMILES)
1,1000 to 5000,"CN1CCN(c2ccncc2NC(=O)c2c(N)nn3cc(C(C)(C)C#N)cnc23)CC1 [I-N-76, 2-amino-6-(2-cyanopropan-2-yl)-N-(4-(4-methylpiperazin-1-yl)pyridin-3-yl)pyrazolo[1,5-a]pyrimidine-3-carboxamide]"

# Same assay, conditions: Ki(app), 5 nM full-length ATR, 10 μM ATP, 25° C.
row,Structure (SMILES),Ki [nM]
1,"CC(C#N)c1cnc2c(C(=O)Nc3cnccc3N3CCN(C)CC3)c(N)nn2c1 (centres unmarked) [I-N-78, 2-amino-6-(1-cyanoethyl)-N-(4-(4-methylpiperazin-1-yl)pyridin-3-yl)pyrazolo[1,5-a]pyrimidine-3-carboxamide]",10 to 1000
2,"CN1CCN(c2ccncc2NC(=O)c2c(N)nn3cc(CC#N)cnc23)CC1 [I-N-82, 2-amino-6-(cyanomethyl)-N-(4-(4-methylpiperazin-1-yl)pyridin-3-yl)pyrazolo[1,5-a]pyrimidine-3-carboxamide]",< 10
3,"N#CCc1cnc2c(C(=O)Nc3cnccc3N3CCCCC3)c(N)nn2c1 [I-N-84, 2-amino-6-(cyanomethyl)-N-(4-(piperidin-1-yl)pyridin-3-yl)pyrazolo[1,5-a]pyrimidine-3-carboxamide]",< 10
4,"CNC1CCN(c2ccncc2NC(=O)c2c(N)nn3cc(Cl)cnc23)CC1 [I-N-87, 2-amino-6-chloro-N-(4-(4-(methylamino)piperidin-1-yl)pyridin-3-yl)pyrazolo[1,5-a]pyrimidine-3-carboxamide]",10 to 1000
5,"Nc1nn2cc(Cl)cnc2c1C(=O)Nc1cnccc1N1CCNCC1 [I-N-88, 2-amino-6-chloro-N-(4-(piperazin-1-yl)pyridin-3-yl)pyrazolo[1,5-a]pyrimidine-3-carboxamide]",10 to 1000
6,"N#CCc1cnc2c(C(=O)Nc3cnccc3N3CCNCC3)c(N)nn2c1 [I-N-89, 2-amino-6-(cyanomethyl)-N-(4-(piperazin-1-yl)pyridin-3-yl)pyrazolo[1,5-a]pyrimidine-3-carboxamide]",10 to 1000
7,"N#CCc1cnc2c(C(=O)Nc3cnccc3N3CCOC(CN)C3)c(N)nn2c1 (centres unmarked) [I-N-90, 2-amino-N-(4-(2-(aminomethyl)morpholino)pyridin-3-yl)-6-(cyanomethyl)pyrazolo[1,5-a]pyrimidine-3-carboxamide]",10 to 1000
8,"NCC1CCN(c2ccncc2NC(=O)c2c(N)nn3cc(Cl)cnc23)CC1 [I-N-91, 2-amino-N-(4-(4-(aminomethyl)piperidin-1-yl)pyridin-3-yl)-6-chloropyrazolo[1,5-a]pyrimidine-3-carboxamide]",< 10
9,"Nc1nn2cc(Cl)cnc2c1C(=O)Nc1cnccc1N1CCC(N2CCC2)CC1 [I-N-93, 2-amino-N-(4-(4-(azetidin-1-yl)piperidin-1-yl)pyridin-3-yl)-6-chloropyrazolo[1,5-a]pyrimidine-3-carboxamide]",10 to 1000
10,"CN(C)C1CN(C2CCN(c3ccncc3NC(=O)c3c(N)nn4cc(Cl)cnc34)CC2)C1 [I-N-94, 2-amino-6-chloro-N-(4-(4-(3-(dimethylamino)azetidin-1-yl)piperidin-1-yl)pyridin-3-yl)pyrazolo[1,5-a]pyrimidine-3-carboxamide]",10 to 1000
11,"COC1CCN(C2CCN(c3ccncc3NC(=O)c3c(N)nn4cc(Cl)cnc34)CC2)C1 (centres unmarked) [I-N-95, 2-amino-6-chloro-N-(4-(4-(3-methoxypyrrolidin-1-yl)piperidin-1-yl)pyridin-3-yl)pyrazolo[1,5-a]pyrimidine-3-carboxamide]",10 to 1000
12,"Nc1nn2cc(Cl)cnc2c1C(=O)Nc1cnccc1N1CCC(N2CC[C@@H](F)C2)CC1 [I-N-98, (R)-2-amino-6-chloro-N-(4-(4-(3-fluoropyrrolidin-1-yl)piperidin-1-yl)pyridin-3-yl)pyrazolo[1,5-a]pyrimidine-3-carboxamide]",10 to 1000
13,"Nc1nn2cc(Cl)cnc2c1C(=O)Nc1cnccc1N1CCC(N2CCC3(COC3)C2)CC1 [I-N-99, N-(4-(4-(2-oxa-6-azaspiro[3.4]octan-6-yl)piperidin-1-yl)pyridin-3-yl)-2-amino-6-chloropyrazolo[1,5-a]pyrimidine-3-carboxamide]",10 to 1000

# The remaining lines, values ahead:
row,Ki [nM],Structure (SMILES)
1,10 to 1000,"N#CCc1cnc2c(C(=O)Nc3cnccc3N3CCCC3)c(N)nn2c1 [I-N-77, 2-amino-6-(cyanomethyl)-N-(4-(pyrrolidin-1-yl)pyridin-3-yl)pyrazolo[1,5-a]pyrimidine-3-carboxamide]"
2,10 to 1000,"N#CCc1cnc2c(C(=O)Nc3cnccc3N3CCCCCC3)c(N)nn2c1 [I-N-79, 2-amino-N-(4-(azepan-1-yl)pyridin-3-yl)-6-(cyanomethyl)pyrazolo[1,5-a]pyrimidine-3-carboxamide]"
3,10 to 1000,"CN1CCN(c2c(F)cncc2NC(=O)c2c(N)nn3cc(CC#N)cnc23)CC1 [I-N-80, 2-amino-6-(cyanomethyl)-N-(5-fluoro-4-(4-methylpiperazin-1-yl)pyridin-3-yl)pyrazolo[1,5-a]pyrimidine-3-carboxamide]"
4,10 to 1000,"N#CCc1cnc2c(C(=O)Nc3cnccc3N3CCOCC3)c(N)nn2c1 [I-N-81, 2-amino-6-(cyanomethyl)-N-(4-morpholinopyridin-3-yl)pyrazolo[1,5-a]pyrimidine-3-carboxamide]"
5,< 10,"N#CCc1cnc2c(C(=O)Nc3cnccc3N3CCC(O)CC3)c(N)nn2c1 [I-N-83, 2-amino-6-(cyanomethyl)-N-(4-(4-hydroxypiperidin-1-yl)pyridin-3-yl)pyrazolo[1,5-a]pyrimidine-3-carboxamide]"
6,10 to 1000,"CN1CCN(c2c(Cl)cncc2NC(=O)c2c(N)nn3cc(F)cnc23)CC1 [I-N-85, 2-amino-N-(5-chloro-4-(4-methylpiperazin-1-yl)pyridin-3-yl)-6-fluoropyrazolo[1,5-a]pyrimidine-3-carboxamide]"
7,10 to 1000,"Nc1nn2cc(Cl)cnc2c1C(=O)Nc1cnccc1N1CCC(N)CC1 [I-N-86, 2-amino-N-(4-(4-aminopiperidin-1-yl)pyridin-3-yl)-6-chloropyrazolo[1,5-a]pyrimidine-3-carboxamide]"
8,10 to 1000,"CN1CCN(C2CCN(c3ccncc3NC(=O)c3c(N)nn4cc(Cl)cnc34)CC2)CC1 [I-N-97, 2-amino-6-chloro-N-(4-(4-(4-methylpiperazin-1-yl)piperidin-1-yl)pyridin-3-yl)pyrazolo[1,5-a]pyrimidine-3-carboxamide]"
9,10 to 1000,"Nc1nn2cc(Cl)cnc2c1C(=O)Nc1cnccc1N1CCC(N2CC[S+]([O-])CC2)CC1 [I-N-100, 2-amino-6-chloro-N-(4-(4-(1-oxidothiomorpholino)piperidin-1-yl)pyridin-3-yl)pyrazolo[1,5-a]pyrimidine-3-carboxamide]"
10,10 to 1000,"Nc1nn2cc(Cl)cnc2c1C(=O)Nc1cnccc1N1CCC(N2CCn3cncc3C2)CC1 [I-N-101, 2-amino-6-chloro-N-(4-(4-(5,6-dihydroimidazo[1,5-a]pyrazin-7(81-1)-yl)piperidin-1-yl)pyridin-3-yl)pyrazolo[1,5-a]pyrimidine-3-carboxamide]"
11,10 to 1000,"Nc1nn2cc(Cl)cnc2c1C(=O)Nc1cnccc1N1CCC(N2CCn3ccnc3C2)CC1 [I-N-102, 2-amino-6-chloro-N-(4-(4-(5,6-dihydroimidazo[1,2-a]pyrazin-7(8H)-yl)piperidin-1-yl)pyridin-3-yl)pyrazolo[1,5-a]pyrimidine-3-carboxamide]"
12,10 to 1000,"Nc1nn2cc(Cl)cnc2c1C(=O)Nc1cnccc1N1CCC(N2CC[C@H](F)C2)CC1 [I-N-103, (S)-2-amino-6-chloro-N-(4-(4-(3-fluoropyrrolidin-1-yl)piperidin-1-yl)pyridin-3-yl)pyrazolo[1,5-a]pyrimidine-3-carboxamide]"
